Data from patent US5700833A, “Isocarbacyclin derivatives” (Research Developement Corporation of Japan, priority 1995, dated 1997).

What was measured:
[1] = test system: prostacyclin receptor (CNS) in the thalamus ([^3 H] isocarbacyclin receptor); experiment: Displacement test relative to tritium-labelled isocarbacyclin, thalamus (CNS), autoradiography of frozen brain sections; format: binding, rat; conditions: for Binding ratio to [^3 H] isocarbacyclin receptor: thalamus (CNS), 10 nM [^3 H]isocarbacyclin, 4° C., 2 h, pH 7.4
Description: (§1) Blood ingredients were removed from the brain of a rat by systemic perfusion, and were frozen, thus preparing a frozen section having a thickness of 10 μm. This section was incubated with 10 nM [^3 H]isocarba cyclin and isocarbacyclin derivatives at various concentrations, at 4° C. for two hours in 50 mM Tris/HCl pH 7.4 and 20 mM MgCl2 solution. After incubation and washing, the solution was dried, thereby preparing an autoradiography film of the section. A displacement value for each derivative was determined by quantitative analysis of the autoradiography (n=at least 4).
1) The results in the thalamus (CNS) are shown in Tables 1 and 2 for the following compounds: [drawing 27]

[2] = biological target: T1, prostacyclin receptor (PNS) in the medulla oblongata nucleus ([^3 H] isocarbacyclin receptor) (Rattus norvegicus, UniProt P43253); experiment: Displacement test relative to tritium-labelled isocarbacyclin, medulla oblongata nucleus (PNS), autoradiography of frozen brain sections; conditions: 10 nM [^3 H]isocarbacyclin, 4° C., 2 h, pH 7.4, read-out: Binding ratio to [^3 H] isocarbacyclin receptor; for activity at 0.3 µM: un-labelled compound 3 × 10^-7 M; for activity at 0.03 µM: un-labelled compound 3 × 10^-8 M; for activity at 1 µM: un-labelled compound 10^-6 M; for activity at 0.01 µM: un-labelled compound 10^-8 M; for activity at 0.003 µM: un-labelled compound 3 × 10^-9 M; for activity at 0.1 µM: un-labelled compound 10^-7 M
T1 construct: Blood ingredients were removed from the brain of a rat by systemic perfusion; from tissue; host or cells: rat brain, frozen sections, medulla oblongata nucleus (nucleus solitarius) read by autoradiography
T1 sequence (P43253 whole entry, the tested form may be a part): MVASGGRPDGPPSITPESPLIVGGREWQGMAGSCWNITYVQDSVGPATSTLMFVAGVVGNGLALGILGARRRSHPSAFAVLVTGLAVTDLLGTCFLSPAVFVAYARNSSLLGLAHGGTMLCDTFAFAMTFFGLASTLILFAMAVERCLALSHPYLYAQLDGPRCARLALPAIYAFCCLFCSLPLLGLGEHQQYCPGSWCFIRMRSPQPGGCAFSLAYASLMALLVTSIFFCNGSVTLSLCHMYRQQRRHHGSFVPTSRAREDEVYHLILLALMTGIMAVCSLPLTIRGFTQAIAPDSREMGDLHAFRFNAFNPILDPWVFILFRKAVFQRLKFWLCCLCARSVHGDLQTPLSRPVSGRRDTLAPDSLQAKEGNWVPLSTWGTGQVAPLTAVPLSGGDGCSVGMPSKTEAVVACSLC
Description: as §1

[3] = test system: platelets; experiment: Platelet aggregation inhibiting activity (ADP-induced, platelet rich plasma); format: cell-based, rat; conditions: for IC50: rat platelet rich plasma, 100 μM ADP, 5 μl, 37° C., 1 min preincubation
Description: Blood was totally taken from the abdominal aorta of an anesthetized rat (body weight: 500 g). Then, 1/10 volume part of 3.8% sodium citrate was added to the sampled blood and the mixture was centrifugally separated at 1,000 rpm for ten minutes to achieve an upper layer of platelet rich plasma (PRP). The lower layer was then further centrifugally separated at 3,000 rpm for ten minutes to prepare platelet poor plasma (PPP). The number of platelets in PRP was measured, and PPP was diluted to adjust the number to […] to serve as a platelet solution. The platelet solution was placed in an amount of 90 μl into a cuvette, and the drug to be tested in an amount of […] was added for incubation at 37° C. for one minute. Then, an aggregation agent (100 μM ADP) in an amount of 5 μl was added to cause aggregation of platelets, and changes in […] were measured. Control of aggregation activity was conducted by using turbidity upon addition of physiological saline.

[4] = test system: platelets aggregation / vasodilation; conditions: compared with natural prostacyclin; cited from earlier work
[5] = neutral or oxidizing conditions; cited from earlier work
[6] = test system: binding site of iloprost in platelets; conditions: cited from earlier work
[7] = test system: prostacyclin binding sites in cerebral hemisphere; conditions: autoradiography, frozen cryostat sections; cited from earlier work
[8] = test system: nervous system; conditions: cited from earlier work
[9] = test system: dopamine D1 receptors; conditions: cited from earlier work
[10] = un-labelled compound 3 × 10^-7 M, 0.3 µM
[11] = un-labelled compound 3 × 10^-8 M, 0.03 µM
[12] = un-labelled compound 3 × 10^-9 M
[13] = un-labelled compound 10^-6 M, 1 µM
[14] = un-labelled compound 10^-7 M, 0.1 µM

| Binding ratio to [^3 H] isocarbacyclin receptor [1, 10] | Binding ratio to [^3 H] isocarbacyclin receptor [1, 11] | Binding ratio to [^3 H] isocarbacyclin receptor [1, 12] | Binding ratio to [^3 H] isocarbacyclin receptor [1, 13] | Binding ratio to [^3 H] isocarbacyclin receptor [1, 14] | Binding ratio to [^3 H] isocarbacyclin receptor ([1]; un-labelled compound 10^-8 M) | activity at 0.3 µM [2] | activity at 0.03 µM [2] | activity at 1 µM [2] | activity at 0.01 µM [2] | IC50 [3] | activity at 0.003 µM [2] | activity at 0.1 µM [2] | SMILES | also measured |
| --- | --- | --- | --- | --- | --- | --- | --- | --- | --- | --- | --- | --- | --- | --- |
| 25.4% | 67.0% | 97.4% | 15.7% | 48.3% | 89.2% | 69.8% | 79.3% | 52.5% | 74.1% | > 400 nM |  |  | Cc1cccc(C[C@@H](O)/C=C/[C@@H]2[C@H]3CC(CCCCC(=O)O)=C[C@H]3C[C@H]2O)c1 [Compound A, 15R-16-(3-methylphenyl)-17, 18, 19, 20-tetranolisocarbacycline] | binding to the thalamic prostacyclin receptor (CNS) ([1]; in words): firmly bound to the thalamic prostacyclin receptor (CNS); activity relative to the prostacyclin receptor (CNS) in the thalamus ([1]; in words, compared with isocarbacyclin): an activity stronger than that of isocarbacyclin; activity at 0.001 µM ([2]; un-labelled compound 10^-9 M (so in the source)): 84.7%; platelet aggregation inhibiting activity ([3]; in words): almost no platelet aggregation inhibiting activity |
| 36.6% | 84.6% | 98.6% | 20.1% | 58.0% | 93.9% | 39.5% | 80.5% | 33.8% | 88.3% | 19 nM | 96.6% | 54.8% | Cc1cccc(C[C@H](O)/C=C/[C@@H]2[C@H]3CC(CCCCC(=O)O)=C[C@H]3C[C@H]2O)c1 [Compound B] |  |
| 73.3% | 93.8% | 98.7% | 48.1% | 85.9% | 96.1% | 71.8% | 89.9% | 53.5% | 92% |  | 95% | 81.3% | Cc1cccc(CCC[C@@H](O)/C=C/[C@@H]2[C@H]3CC(CCCCC(=O)O)=C[C@H]3C[C@H]2O)c1 [Compound C] |  |
| 94.1% | 98.4% | 101.1% | 88.5% | 100.8% | 99.8% | 45.8% | 80.6% | 34.4% | 92.8% |  | 96.9% | 55.6% | Cc1cccc(CCC[C@H](O)/C=C/[C@@H]2[C@H]3CC(CCCCC(=O)O)=C[C@H]3C[C@H]2O)c1 [Compound D] |  |
| 34.7% | 76.4% | 99.2% | 19.3% | 62.7% | 94.5% | 22.5% | 57.3% | 8% | 79% | 2.5 nM | 94% |  | CCCCC[C@H](O)/C=C/[C@@H]1[C@H]2CC(CCCCC(=O)O)=C[C@H]2C[C@H]1O [Isocarbacyclin, 9(O)-methano-Δ^6(9α) prostaglandin I1] | platelets aggregation inhibiting functions and vasodilating antihypertensive effects [4]: strong platelets aggregation inhibiting functions and vasodilating antihypertensive effects and other biological activities well comparable with those of natural prostacyclin |
|  |  |  |  |  |  |  |  |  |  |  |  |  | CCCCC[C@H](O)/C=C/[C@@H]1[C@H]2C/C(=C/CCCC(=O)O)O[C@H]2C[C@H]1O [Natural prostacyclin] | chemical stability [5]: easily inactivated under neutral or oxidizing conditions |
|  |  |  |  |  |  |  |  |  |  | 63 nM |  |  | CCCCC[C@H](O)/C=C/[C@H]1[C@H](O)CC(=O)[C@@H]1CCCCCCC(=O)O [Prostaglandin E1, reference compound] | reaction with the binding site of iloprost [6]: the binding site of iloprost reacts also with PGE1 |
|  |  |  |  |  |  |  |  |  |  |  |  |  | CC#CCC(C)[C@H](O)/C=C/[C@@H]1[C@H]2C/C(=C/CCCC(=O)O)C[C@H]2C[C@H]1O (some centres unmarked) [[^3 H] iloprost] | prostacyclin binding sites found [7]: prostacyclin binding sites in corpus striatum, amygdala, hippocampus and part of the cerebral cortex |
|  |  |  |  |  |  |  |  |  |  |  |  |  | CC#CCC(C)[C@H](O)/C=C/[C@@H]1[C@H]2C/C(=C/CCCC(=O)O)C[C@H]2C[C@H]1O (some centres unmarked) [iloprost] | effects on the nervous system [8]: sedation, anticonvulsation, antihypoxemia (prolongation effects in hypoxemia) and synchronizing induction effects of brain waves antagonized by amphetamine; prevention of the binding of dopamine D1 receptors [9]: prevention of the binding of dopamine D1 receptors |
